Starred links: 1 amine or outer side, 2 acyl side, 3 side chain; linkers in the order of their positions; H or OH if unused. Positions of bridges follow the written chain, without caps; N, C: chain ends. Non-standard residues stand in square brackets, D forms with d. Residues, ends and D or L forms follow the SMILES beside them. ξ: configuration not given here. *: point of attachment. X33 = CCCCCCCCCCCC(=O)Nc1cc(NC(=O)CCCCCCCCCCC)cc(C(=O)*)c1; X14 = CC(NC(=O)[C@@H](N)CNC(=O)CCN)C(N[*:1])C(=O)[*:2]; Benzoyl(4-OC10H21) = CCCCCCCCCCOc1ccc(C(=O)*)cc1; Hexadecanesulfonyl = CCCCCCCCCCCCCCCCS(=O)(=O)*; X34 = CCCCCC(=O)Nc1cc(NC(=O)CCCCC)cc(C(=O)*)c1; X40 = CC(NC(=O)CCN1CCNCC1)C(N[*:1])C(=O)[*:2]; ξAbu(βξ-NH2) = CC(N[*:3])C(N[*:1])C(=O)[*:2]; X38 = CC(NC(=O)CCCN(C)C)C(N[*:1])C(=O)[*:2]; Pentadecanoyl = CCCCCCCCCCCCCCC(=O)*; Stearoyl = CCCCCCCCCCCCCCCCCC(=O)*; ξAsp(βξ-Me) = CC(C(=O)O)C(N)C(=O)O; X27 = CCCCCCCC/C=C/CCCCCCCC(=O)*; X13 = O=C(CCCCCCCCCCOc1ccccc1)*; ξAbu(3ξ-NH2) = CC(N)C(N)C(=O)O; X9 = O=C(c1ccccc1Cc1ccccc1)*; X19 = CCCCCCCCCCS(=O)(=O)*; Pip = O=C(O)[CH]1CCCCN1; ξD = NC(CC(=O)O)C(=O)O; ξPip = O=C(O)C1CCCCN1; ξV = CC(C)C(N)C(=O)O; ξP = O=C(O)C1CCCN1

The MIC is the least concentration at which growth counts as inhibited.

In one assay the test system is Staphylococcus aureus (MSSA). As to conditions: 24 h. The method, boiled down:
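Broth microdilution MIC per NCCLS M7-A6 with doubling serial dilutions, in cation-adjusted Mueller-Hinton broth supplemented with 0.625 mM calcium.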
For `CCCCCCCCCCOc1ccc(C(=O)NCC(=O)NC(CC(=O)O)C(=O)NC2C(=O)N3CCCCC3C(=O)NC(C(C)C(=O)O)C(=O)NC(CC(=O)O)C(=O)NCC(=O)NC(CC(=O)O)C(=O)NCC(=O)NC(C(C)N)C(=O)NC(C(C)C)C(=O)N3CCCC3C(=O)NC2C)cc1` (stereo not drawn) [Compound 110, CH3—(CH2)9—O-p-Ph-C(═O)-Gly-Amphomycin] ({Benzoyl(4-OC10H21)}-GD[ξAbu(βξ-NH2)][Pip][ξAsp(βξ-Me)]DGDG[ξAbu(3ξ-NH2)]VP; lactam 3-C; configuration not given here), the MIC stood at 0.5 µg/mL.

In the case of `CCCCCC(=O)Nc1cc(NC(=O)CCCCC)cc(C(=O)NC(CC(=O)O)C(=O)NC2C(=O)N3CCCCC3C(=O)NC(C(C)C(=O)O)C(=O)NC(CC(=O)O)C(=O)NCC(=O)NC(CC(=O)O)C(=O)NCC(=O)NC(C(C)N)C(=O)NC(C(C)C)C(=O)N3CCCC3C(=O)NC2C)c1` (stereo not drawn) [Compound 319, N,N′-di-C6-(M,M-Diaminobenzoyl)-Amphomycin] (X34-D[ξAbu(βξ-NH2)][Pip][ξAsp(βξ-Me)]DGDG[ξAbu(3ξ-NH2)]VP; lactam 2-C; configuration not given here), the minimal inhibitory concentration (MIC) worked out at 64 µg/mL. `CCCCCCCCCCCCCCCCS(=O)(=O)NCC(=O)NC(CC(=O)O)C(=O)NC1C(=O)N2CCCCC2C(=O)NC(C(C)C(=O)O)C(=O)NC(CC(=O)O)C(=O)NCC(=O)NC(CC(=O)O)C(=O)NCC(=O)NC(C(C)N)C(=O)NC(C(C)C)C(=O)N2CCCC2C(=O)NC1C` (stereo not drawn) [Compound 99, CH3—(CH2)15—SO2-Gly-Amphomycin] (Hexadecanesulfonyl-GD[ξAbu(βξ-NH2)][Pip][ξAsp(βξ-Me)]DGDG[ξAbu(3ξ-NH2)]VP; lactam 3-C; configuration not given here): the MIC is 0.5 to 1 µg/mL.

Turning to `CCCCCCCCCCCCCCC(=O)NC(CC(=O)O)C(=O)NC1C(=O)N2CCCCC2C(=O)NC(C(C)C(=O)O)C(=O)NC(CC(=O)O)C(=O)NCC(=O)NC(CC(=O)O)C(=O)NCC(=O)NC(C(C)NC(=O)CCN2CCNCC2)C(=O)NC(C(C)C)C(=O)N2CCCC2C(=O)NC1C` (stereo not drawn) [Compound 241] (Pentadecanoyl-D[ξAbu(βξ-NH2)][Pip][ξAsp(βξ-Me)]DGDG[X40]VP; lactam 2-C; configuration not given here), the MIC was 1 to 2 µg/mL. On the same count and under the same terms, in the case of `CCCCCCCCCCCCCCC(=O)NC(CC(=O)O)C(=O)NC1C(=O)N2CCCCC2C(=O)NC(C(C)C(=O)O)C(=O)NC(CC(=O)O)C(=O)NCC(=O)NC(CC(=O)O)C(=O)NCC(=O)NC(C(C)NC(=O)[C@H](C)N)C(=O)NC(C(C)C)C(=O)N2CCCC2C(=O)NC1C` (some centres unmarked) [Compound 82, C15-Amphomycin-9-Ala] it was 2 µg/mL; in that of `CCCCCCCCCCCCCCC(=O)NC(CC(=O)O)C(=O)NC1C(=O)N2CCCCC2C(=O)NC(C(C)C(=O)O)C(=O)NC(CC(=O)O)C(=O)NCC(=O)NC(CC(=O)O)C(=O)NCC(=O)NC(C(C)NC(=O)CCNC(=O)[C@@H](N)CCCN)C(=O)NC(C(C)C)C(=O)N2CCCC2C(=O)NC1C` (stereo partly drawn) [Compound 148, C15-Amphomycin-9-(β-Ala)-Orn], 0.5 to 1 µg/mL; in that of `CCCCCCCC/C=C/CCCCCCCC(=O)NC(C)C1NC(=O)CNC(=O)C(CC(=O)O)NC(=O)CNC(=O)C(CC(=O)O)NC(=O)C(C(C)C(=O)O)NC(=O)C2CCCCN2C(=O)C(NC(=O)C(CC(=O)O)NC(=O)CCCCCCCCCCCCCC)C(C)NC(=O)C2CCCN2C(=O)C(C(C)C)NC1=O` (stereo not drawn) [Compound 238, C15-Amphomycin-9-Oleate] (Pentadecanoyl-D[ξAbu(βξ-NH2)][Pip][ξAsp(βξ-Me)]DGDG[ξAbu(βξ-NH2)](X27)VP; lactam 2-C; configuration not given here), 1 to 2 µg/mL. `CCCCCCCCCCCCCCC(=O)NC(CC(=O)O)C(=O)NC1C(=O)N2CCCCC2C(=O)NC(C(C)C(=O)O)C(=O)NC(CC(=O)O)C(=O)NCC(=O)NC(CC(=O)O)C(=O)NCC(=O)NC(C(C)NC(=O)[C@@H](N)Cc2ccc([N+](=O)[O-])cc2)C(=O)NC(C(C)C)C(=O)N2CCCC2C(=O)NC1C` (some centres unmarked) [Compound 27, C15-Amphomycin-9-(P—NO2-Phe)]: the minimum inhibitory concentration (MIC) lay within 32 to 64 µg/mL. With `CC(C)C1NC(=O)C(C(C)N)NC(=O)CNC(=O)C(CC(=O)O)NC(=O)CNC(=O)C(CC(=O)O)NC(=O)C(C(C)C(=O)O)NC(=O)C2CCCCN2C(=O)C(NC(=O)C(CC(=O)O)NC(=O)CNC(=O)CCCCCCCCCCOc2ccccc2)C(C)NC(=O)C2CCCN2C1=O` (stereo not drawn) [Compound 117, Ph-O—(CH2)11-Gly-Amphomycin] (X13-GD[ξAbu(βξ-NH2)][Pip][ξAsp(βξ-Me)]DGDG[ξAbu(3ξ-NH2)]VP; lactam 3-C; configuration not given here; N-terminus assumed), the MIC is 8 µg/mL. Same read-out and setting: for `CCCCCCCCCCCC(=O)Nc1cc(NC(=O)CCCCCCCCCCC)cc(C(=O)NC(CC(=O)O)C(=O)NC2C(=O)N3CCCCC3C(=O)NC(C(C)C(=O)O)C(=O)NC(CC(=O)O)C(=O)NCC(=O)NC(CC(=O)O)C(=O)NCC(=O)NC(C(C)N)C(=O)NC(C(C)C)C(=O)N3CCCC3C(=O)NC2C)c1` (stereo not drawn) [Compound 320, N,N′-di-C12-(M,M-Diaminobenzoyl)-Amphomycin] (X33-D[ξAbu(βξ-NH2)][Pip][ξAsp(βξ-Me)]DGDG[ξAbu(3ξ-NH2)]VP; lactam 2-C; configuration not given here) the value was 2 µg/mL; for `CCCCCCCCCCCCCCC(=O)NC(CC(=O)O)C(=O)NC1C(=O)N2CCCCC2C(=O)NC(C(C)C(=O)O)C(=O)NC(CC(=O)O)C(=O)NCC(=O)NC(CC(=O)O)C(=O)NCC(=O)NC(C(C)NC(=O)[C@@H](N)CNC(=O)CCN)C(=O)NC(C(C)C)C(=O)N2CCCC2C(=O)NC1C` (stereo partly drawn) [Compound 200, C15-Amphomycin-9-Dap-(β-N-(β-Ala))] (Pentadecanoyl-[ξD][ξAbu(βξ-NH2)][ξPip][ξAsp(βξ-Me)][ξD]G[ξD]G[X14][ξV][ξP]; lactam 2-C), 1 µg/mL; for `CCCCCCCCCCCCCCC(=O)NC(CC(=O)O)C(=O)NC1C(=O)N2CCCCC2C(=O)NC(C(C)C(=O)O)C(=O)NC(CC(=O)O)C(=O)NCC(=O)NC(CC(=O)O)C(=O)NCC(=O)NC(C(C)NC(=O)CN(C)C(=O)[C@@H](N)CN)C(=O)NC(C(C)C)C(=O)N2CCCC2C(=O)NC1C` (some centres unmarked) [Compound 146, C15-Amphomycin-9-Sar-Dap], 2 µg/mL. Turning to `CCCCCCCCCCCCCCCCCC(=O)NCC(=O)NC(CC(=O)O)C(=O)NC1C(=O)N2CCCCC2C(=O)NC(C(C)C(=O)O)C(=O)NC(CC(=O)O)C(=O)NCC(=O)NC(CC(=O)O)C(=O)NCC(=O)NC(C(C)N)C(=O)NC(C(C)C)C(=O)N2CCCC2C(=O)NC1C` (stereo not drawn) [Compound 107, C18-Gly-Amphomycin] (Stearoyl-GD[ξAbu(βξ-NH2)][Pip][ξAsp(βξ-Me)]DGDG[ξAbu(3ξ-NH2)]VP; lactam 3-C; configuration not given here), the MIC was found to be 2 µg/mL. Turning to `CC(C)C1NC(=O)C(C(C)N)NC(=O)CNC(=O)C(CC(=O)O)NC(=O)CNC(=O)C(CC(=O)O)NC(=O)C(C(C)C(=O)O)NC(=O)C2CCCCN2C(=O)C(NC(=O)C(CC(=O)O)NC(=O)c2ccccc2Cc2ccccc2)C(C)NC(=O)C2CCCN2C1=O` (stereo not drawn) [Compound 323, (2-(Phenylmethyl)-Benzoyl)-Amphomycin] (X9-D[ξAbu(βξ-NH2)][Pip][ξAsp(βξ-Me)]DGDG[ξAbu(3ξ-NH2)]VP; lactam 2-C; configuration not given here), the MIC is above 64 µg/mL. Regarding `CCCCCCCCCCCCCCC(=O)NC(CC(=O)O)C(=O)NC1C(=O)N2CCCCC2C(=O)NC(C(C)C(=O)O)C(=O)NC(CC(=O)O)C(=O)NCC(=O)NC(CC(=O)O)C(=O)NCC(=O)NC(C(C)NC(=O)CCCN(C)C)C(=O)NC(C(C)C)C(=O)N2CCCC2C(=O)NC1C` (stereo not drawn) [Compound 242, C15-Amphomycin-9-(N,N′-Dimethyl-GABA)] (Pentadecanoyl-D[ξAbu(βξ-NH2)][Pip][ξAsp(βξ-Me)]DGDG[X38]VP; lactam 2-C; configuration not given here), the minimal inhibitory concentration (MIC) lay within 1 to 2 µg/mL.

In the case of `CCCCCCCCCCCCCCC(=O)NC(CC(=O)O)C(=O)NC1C(=O)N2CCCCC2C(=O)NC(C(C)C(=O)O)C(=O)NC(CC(=O)O)C(=O)NCC(=O)NC(CC(=O)O)C(=O)NCC(=O)NC(C(C)NC(=O)CN(C)C(=O)[C@@H](N)CCCN)C(=O)NC(C(C)C)C(=O)N2CCCC2C(=O)NC1C` (some centres unmarked) [Compound 144, C15-Amphomycin-9-Sar-Orn], the MIC was 4 µg/mL. With `CCCCCCCCCCCCCCC(=O)NC(CC(=O)O)C(=O)NC1C(=O)N2CCCCC2C(=O)NC(C(C)C(=O)O)C(=O)NC(CC(=O)O)C(=O)NCC(=O)NC(CC(=O)O)C(=O)NCC(=O)NC(C(C)NC(=O)CCCCNC(=O)CCN)C(=O)NC(C(C)C)C(=O)N2CCCC2C(=O)NC1C` (stereo not drawn) [Compound 176, C15-Amphomycin-9-(5-Ava)-(β-Ala)], the MIC came out at 4 µg/mL.

For `CCCCCCCCCCOc1ccc(C(=O)NC(CC(=O)O)C(=O)NC2C(=O)N3CCCCC3C(=O)NC(C(C)C(=O)O)C(=O)NC(CC(=O)O)C(=O)NCC(=O)NC(CC(=O)O)C(=O)NCC(=O)NC(C(C)N)C(=O)NC(C(C)C)C(=O)N3CCCC3C(=O)NC2C)cc1` (centres unmarked) [Compound 18, CH3—(CH2)9—O-p-Ph-C(═O)-Amphomycin], the minimal inhibitory concentration (MIC) was 0.5 to 1 µg/mL. Take `CCCCCCCCCCS(=O)(=O)NCC(=O)NC(CC(=O)O)C(=O)NC1C(=O)N2CCCCC2C(=O)NC(C(C)C(=O)O)C(=O)NC(CC(=O)O)C(=O)NCC(=O)NC(CC(=O)O)C(=O)NCC(=O)NC(C(C)N)C(=O)NC(C(C)C)C(=O)N2CCCC2C(=O)NC1C` (stereo not drawn) [Compound 269, CH3—(CH2)9—SO2-Gly-Amphomycin] (X19-GD[ξAbu(βξ-NH2)][Pip][ξAsp(βξ-Me)]DGDG[ξAbu(3ξ-NH2)]VP; lactam 3-C; configuration not given here): the MIC was 4 to 8 µg/mL.

Staying with this assay, now noted: S. aureus (MSSA), CAMHB supplemented with 0.625 mM calcium, 24 hours at about 37° C.; a range = compound tested multiple times.
In the case of `CCCCCCCCCCCCC(=O)NC(CC(=O)O)C(=O)NC1C(=O)N2CCCCC2C(=O)NC(C(C)C(=O)O)C(=O)NC(CC(=O)O)C(=O)NCC(=O)NC(CC(=O)O)C(=O)NCC(=O)NC(C(C)NC(=O)CN)C(=O)NC(C(C)C)C(=O)N2CCCC2C(=O)NC1C` (centres unmarked) [Compound 53, C13-Amphomycin-9-Gly], the MIC is 53/8 μg/mL.

In the case of “β-Isomer of (8-Dodecyloxy-Quinoline-2-Carbonyl)-Amphomycin [Compound 340]”, the MIC stood at 4 µg/mL. As for C17-Amphomycin-Gly-Lys [Compound 142], the MIC is recorded as 142/32 μg/mL. On to C13-Amphomycin-9-gDab [Compound 135], for which the MIC is 135/8 μg/mL.

For the origin of these results see patent publication US7868135B2, “Compositions of lipopeptide antibiotic derivatives and methods of use thereof” (priority 2003, dated 2011).
